Measured values as given in ChEMBL document CHEMBL2202954, “The effect of PLC-γ2 inhibitors on the growth of human tumour cells” (2012).

Key:
Type in all cases: functional
[1] = system: ACHN; assay: Cytotoxicity against human ACHN cells assessed as cellular growth at 10 uM by SRB assay
[2] = system: OVCAR-3; assay: Cytotoxicity against human OVCAR3 cells assessed as cellular growth at 10 uM by SRB assay
[3] = system: COLO 205; assay: Cytotoxicity against human COLO205 cells assessed as cellular growth at 10 uM by SRB assay
[4] = system: BT-549; assay: Cytotoxicity against human BT549 cells assessed as cellular growth at 10 uM by SRB assay
[5] = system: A498; assay: Cytotoxicity against human A498 cells assessed as cellular growth at 10 uM by SRB assay
[6] = system: Malme-3M; assay: Cytotoxicity against human MALME-3M cells assessed as cellular growth at 10 uM by SRB assay
[7] = system: IGROV-1; assay: Cytotoxicity against human IGROV1 cells assessed as cellular growth at 10 uM by SRB assay
[8] = system: TK-10; assay: Cytotoxicity against human TK10 cells assessed as cellular growth at 10 uM by SRB assay
[9] = system: OVCAR-8; assay: Cytotoxicity against human OVCAR8 cells assessed as cellular growth at 10 uM by SRB assay
[10] = system: HL-60(TB); assay: Cytotoxicity against human HL-60(TB) cells assessed as cellular growth at 10 uM by SRB assay
[11] = system: SW-620; assay: Cytotoxicity against human SW620 cells assessed as cellular growth at 10 uM by SRB assay
[12] = system: A549; assay: Cytotoxicity against human A549 cells assessed as cellular growth at 10 uM by SRB assay
[13] = system: NCI-H226; assay: Cytotoxicity against human NCI-H226 cells assessed as cellular growth at 10 uM by SRB assay
[14] = system: SN12C; assay: Cytotoxicity against human SN12C cells assessed as cellular growth at 10 uM by SRB assay
[15] = system: SK-MEL-2; assay: Cytotoxicity against human SK-MEL-2 cells assessed as cellular growth at 10 uM by SRB assay
[16] = system: UO-31; assay: Cytotoxicity against human UO31 cells assessed as cellular growth at 10 uM by SRB assay
[17] = system: K562; assay: Cytotoxicity against human K562 cells assessed as cellular growth at 10 uM by SRB assay
[18] = system: U-251; assay: Cytotoxicity against human U251 cells assessed as cellular growth at 10 uM by SRB assay
[19] = system: NCI-H460; assay: Cytotoxicity against human NCI-H460 cells assessed as cellular growth at 10 uM by SRB assay
[20] = system: SNB-19; assay: Cytotoxicity against human SNB19 cells assessed as cellular growth at 10 uM by SRB assay

| Structure (SMILES) | Activity [1] [%] | Activity [2] [%] | Activity [3] [%] | Activity [4] [%] | Activity [5] [%] | Activity [6] [%] | Activity [7] [%] | Activity [8] [%] | Activity [9] [%] | Activity [10] [%] | Activity [11] [%] | Activity [12] [%] | Activity [13] [%] | Activity [14] [%] | Activity [15] [%] | Activity [16] [%] | Activity [17] [%] | Activity [18] [%] | Activity [19] [%] | Activity [20] [%] |
| --- | --- | --- | --- | --- | --- | --- | --- | --- | --- | --- | --- | --- | --- | --- | --- | --- | --- | --- | --- | --- |
| Cc1cc(C)c(NC(=O)c2sc3nc4c(cc3c2N)C(=O)CC(C)(C)C4)c(C)c1 | 106.81 | 112.82 | 117 | 109.43 | 89.84 | 92.73 | 95.36 | 97.91 | 107.09 | 108.84 | 106.45 | 96.6 | 92.57 | 103.6 | 119.22 | 99.05 | 90.16 | 99.68 | 102.63 | 122.53 |
| Cc1c(OCC(=O)c2ccccc2)ccc2c1oc(=O)c1ccccc12 | 114.47 | 102.65 | 117.2 | 120.42 | 91.47 | 120.27 | 115.73 | 110 | 99.11 | 111.36 | 95.18 | 93.47 | 99.25 | 101.41 | 125.14 | 107.51 | 100.66 | 98.92 | 100.87 | 101.61 |
| N#Cc1ccc(NC(=O)c2sc3nc4c(cc3c2N)C(=O)CCC4)cc1 | 107.57 | 113.89 | 108.98 | 108.43 | 79.55 | 89.34 | 113.1 | 65.94 | 104.55 | 81.02 | 98.14 | 92.54 | 93.7 | 98.35 | 83 | 103.56 | 108.42 | 106.08 | 85.91 | 101.84 |
| Cc1ccc(NC(=O)c2sc3nc4c(cc3c2N)C(=O)CCC4)cc1Cl | 109.05 | 112.77 | 127.7 | 114.66 | 97.9 | 112.49 | 105.54 | 96.53 | 103.45 | 105.82 | 112.63 | 100.84 | 101.89 | 119.21 | 112.11 | 110.67 | 92.98 | 97.87 | 106.36 | 114.43 |
